Assay results from patent US9518018B2, “3-alkoxy, thioalkyl and amino-4-amino-6-(substituted)picolinates and their use as herbicides” (Dow AgroSciences LLC, priority 2011, dated 2016).

System: desired test plant species
Experiment: Foliar-applied postemergence herbicidal activity in direct seeded rice (Table 6)
Type: in vivo
Conditions: 21 DAA
From the text: Seeds or nutlets of the desired test plant species were planted in a soil matrix prepared by mixing a loam soil (43 percent silt, 19 percent clay, and 38 percent sand, with a pH of about 8.1 and an organic matter content of about 1.5 percent) and river sand in an 80 to 20 ratio. The soil matrix was contained in plastic pots with a surface area of 139.7 cm^2. When required to ensure good germination and healthy plants, a fungicide treatment and/or other chemical or physical treatment was applied. The plants were grown for 10-17 d in a greenhouse with an approximate 14-h photoperiod which was maintained at about 29° C. during the day and 26° C. during the night. Nutrients and water were added on a regular basis and supplemental lighting was provided with overhead metal halide 1000-Watt lamps as necessary. The plants were employed for testing when they reached the second or third true leaf stage. Treatments consisted of compounds 45, 34, and 66. Weighed amounts of technical compounds were placed in individual 25 mL glass vials and dissolved in 8 mL of 97:3 v/v acetone-DMSO to obtain stock solutions. […] The spray application solutions were prepared by removing 4 mL of the stock solution and diluting with 4 mL of 97:3 v/v acetone-DMSO and continued serial dilution to obtain 1⁄2×, 1⁄4×, 1⁄8×, and 1/16× rates of the high rate. Spray solutions were diluted to the appropriate final concentrations with the addition of 8 mL of an aqueous mixture of 1.875% (v/v) Agri-dex crop oil concentrate. The final 12-mL spray solutions each contained 1.25% (v/v) Agri-dex crop oil concentrate, 32.3% acetone, and 1.0% DMSO. Compound requirements are based upon a 12 mL application volume at a rate of 187 L/ha. Spray solutions were applied to the plant material with an overhead Mandel track sprayer equipped with […] nozzles calibrated to deliver 187 L/ha over an application area of 0.503 square meters (m^2) at a spray height of 18 inches ([…]) above average plant canopy height. Control plants were sprayed in the same manner with the solvent blank. The treated plants and control plants were placed in a greenhouse as described above and watered by sub-irrigation to prevent wash-off of the test compounds. After approximately 3 weeks, the condition of the test plants, compared with that of the untreated plants, was determined visually and scored on a scale of 0 to 100 percent where 0 corresponds to no injury and 100 corresponds to complete kill. By applying the well-accepted probit analysis as described by J. Berkson in Journal of the […], 48, 565 (1953) and by D. Finney in “Probit Analysis” Cambridge University Press (1952) or by plotting the mean data and fitting a logarithmic curve to the portion of the data where there was a dose response using Microsoft Excel®, the above data can be used to calculate GR50 and GR90 values, which are defined as growth reduction factors that correspond to the effective dose of herbicide required to kill or control 50 percent or 90 percent, respectively, of a target plant.

COc1c(C(=O)OCc2ccccc2)nc(-c2ccc(Cl)c(OC)c2F)c(F)c1N [Compound 66, benzyl 4-amino-6-(4-chloro-2-fluoro-3-methoxyphenyl)-5-fluoro-3-methoxypicolinate]
Mean Visual Injury (%)-21 Days After Application ECHCO (ECHCO (Echinochloa colonum, junglerice), 4.38 g ae/ha): 80%
Mean Visual Injury (%)-21 Days After Application ECHCO (ECHCO (Echinochloa colonum, junglerice), 8.75 g ae/ha): 89%
Mean Visual Injury (%)-21 Days After Application ECHCO (ECHCO (Echinochloa colonum, junglerice), 17.5 g ae/ha): 93%
Mean Visual Injury (%)-21 Days After Application ECHCO (ECHCO (Echinochloa colonum, junglerice), 35 g ae/ha): 94%
Mean Visual Injury (%)-21 Days After Application ECHCO (ECHCO (Echinochloa colonum, junglerice), 70 g ae/ha): 94%
GR50 ECHCO (ECHCO (Echinochloa colonum, junglerice), dose to kill or control 50 percent): <2.19 g ae/ha
GR90 ECHCO (ECHCO (Echinochloa colonum, junglerice), dose to kill or control 90 percent): 11.6 g ae/ha
Mean Visual Injury (%)-21 Days After Application LEFCH (LEFCH (Leptochloa chinensis, Chinese sprangletop), 2.19 g ae/ha): 0%
Mean Visual Injury (%)-21 Days After Application LEFCH (LEFCH (Leptochloa chinensis, Chinese sprangletop), 4.38 g ae/ha): 7%
Mean Visual Injury (%)-21 Days After Application LEFCH (LEFCH (Leptochloa chinensis, Chinese sprangletop), 8.75 g ae/ha): 15%
Mean Visual Injury (%)-21 Days After Application LEFCH (LEFCH (Leptochloa chinensis, Chinese sprangletop), 17.5 g ae/ha): 32%
Mean Visual Injury (%)-21 Days After Application LEFCH (LEFCH (Leptochloa chinensis, Chinese sprangletop), 35 g ae/ha): 26%
Mean Visual Injury (%)-21 Days After Application LEFCH (LEFCH (Leptochloa chinensis, Chinese sprangletop), 70 g ae/ha): 40%
GR50 LEFCH (LEFCH (Leptochloa chinensis, Chinese sprangletop), dose to kill or control 50 percent): >70 g ae/ha
GR90 LEFCH (LEFCH (Leptochloa chinensis, Chinese sprangletop), dose to kill or control 90 percent): >70 g ae/ha
Mean Visual Injury (%)-21 Days After Application ORYSA ‘Clearfield 171’ (ORYSA (Oryza sativa ‘Clearfield 171’, rice), 2.19 g ae/ha): 0%
Mean Visual Injury (%)-21 Days After Application ORYSA ‘Clearfield 171’ (ORYSA (Oryza sativa ‘Clearfield 171’, rice), 4.38 g ae/ha): 0%
Mean Visual Injury (%)-21 Days After Application ORYSA ‘Clearfield 171’ (ORYSA (Oryza sativa ‘Clearfield 171’, rice), 8.75 g ae/ha): 1%
Mean Visual Injury (%)-21 Days After Application ORYSA ‘Clearfield 171’ (ORYSA (Oryza sativa ‘Clearfield 171’, rice), 17.5 g ae/ha): 2%
Mean Visual Injury (%)-21 Days After Application ORYSA ‘Clearfield 171’ (ORYSA (Oryza sativa ‘Clearfield 171’, rice), 35 g ae/ha): 6%
Mean Visual Injury (%)-21 Days After Application ORYSA ‘Clearfield 171’ (ORYSA (Oryza sativa ‘Clearfield 171’, rice), 70 g ae/ha): 8%
GR50 ORYSA ‘Clearfield 171’ (ORYSA (Oryza sativa ‘Clearfield 171’, rice), dose to kill or control 50 percent): >70 g ae/ha
GR90 ORYSA ‘Clearfield 171’ (ORYSA (Oryza sativa ‘Clearfield 171’, rice), dose to kill or control 90 percent): >70 g ae/ha
Mean Visual Injury (%)-21 Days After Application ORYSA ‘Wells’ (ORYSA (Oryza sativa ‘Wells’, rice), 2.19 g ae/ha): 0%
Mean Visual Injury (%)-21 Days After Application ORYSA ‘Wells’ (ORYSA (Oryza sativa ‘Wells’, rice), 4.38 g ae/ha): 0%
Mean Visual Injury (%)-21 Days After Application ORYSA ‘Wells’ (ORYSA (Oryza sativa ‘Wells’, rice), 8.75 g ae/ha): 0%
Mean Visual Injury (%)-21 Days After Application ORYSA ‘Wells’ (ORYSA (Oryza sativa ‘Wells’, rice), 17.5 g ae/ha): 2%
Mean Visual Injury (%)-21 Days After Application ORYSA ‘Wells’ (ORYSA (Oryza sativa ‘Wells’, rice), 35 g ae/ha): 0%
Mean Visual Injury (%)-21 Days After Application ORYSA ‘Wells’ (ORYSA (Oryza sativa ‘Wells’, rice), 70 g ae/ha): 0%
GR50 ORYSA ‘Wells’ (ORYSA (Oryza sativa ‘Wells’, rice), dose to kill or control 50 percent): >70 g ae/ha
GR90 ORYSA ‘Wells’ (ORYSA (Oryza sativa ‘Wells’, rice), dose to kill or control 90 percent): >70 g ae/ha
Mean Visual Injury (%)-21 Days After Application SCPJU (SCPJU (Scirpus juncoides, Japanese bulrush), 2.19 g ae/ha): 100%
Mean Visual Injury (%)-21 Days After Application SCPJU (SCPJU (Scirpus juncoides, Japanese bulrush), 4.38 g ae/ha): 88%
Mean Visual Injury (%)-21 Days After Application SCPJU (SCPJU (Scirpus juncoides, Japanese bulrush), 8.75 g ae/ha): 100%
Mean Visual Injury (%)-21 Days After Application SCPJU (SCPJU (Scirpus juncoides, Japanese bulrush), 17.5 g ae/ha): 100%
Mean Visual Injury (%)-21 Days After Application SCPJU (SCPJU (Scirpus juncoides, Japanese bulrush), 35 g ae/ha): 100%
Mean Visual Injury (%)-21 Days After Application SCPJU (SCPJU (Scirpus juncoides, Japanese bulrush), 70 g ae/ha): 100%
GR50 SCPJU (SCPJU (Scirpus juncoides, Japanese bulrush), dose to kill or control 50 percent): <42.19 g ae/ha
GR90 SCPJU (SCPJU (Scirpus juncoides, Japanese bulrush), dose to kill or control 90 percent): 4.9 g ae/ha
Mean Visual Injury (%)-21 Days After Application SEBEX (SEBEX (Sesbania exaltata, hemp sesbania), 2.19 g ae/ha): 53%
Mean Visual Injury (%)-21 Days After Application SEBEX (SEBEX (Sesbania exaltata, hemp sesbania), 4.38 g ae/ha): 90%
Mean Visual Injury (%)-21 Days After Application SEBEX (SEBEX (Sesbania exaltata, hemp sesbania), 8.75 g ae/ha): 99%
Mean Visual Injury (%)-21 Days After Application SEBEX (SEBEX (Sesbania exaltata, hemp sesbania), 17.5 g ae/ha): 99%
Mean Visual Injury (%)-21 Days After Application SEBEX (SEBEX (Sesbania exaltata, hemp sesbania), 35 g ae/ha): 100%
Mean Visual Injury (%)-21 Days After Application SEBEX (SEBEX (Sesbania exaltata, hemp sesbania), 70 g ae/ha): 100%
GR50 SEBEX (SEBEX (Sesbania exaltata, hemp sesbania), dose to kill or control 50 percent): <2.19 g ae/ha
GR90 SEBEX (SEBEX (Sesbania exaltata, hemp sesbania), dose to kill or control 90 percent): 5.8 g ae/ha
